The source of these data is US20260364174A1, “Purpurin Analogs for Use in Photodynamic Therapy” (RMW Cho Group Limited, priority 2023, published 2026).

Series [1] deals with SKOV3 ovarian cancer cells. The series can be described thus: Phototoxicity: % viable SKOV3 cells (AlamarBlue) after incubation with photosensitizer and 680 nm LED activation. Format: cell-based. To be noted: Homo sapiens, SK-OV-3, light or radiation study, 24 h uptake, 50 mW/cm^2 for 5 mins (15 J/cm^2), viability after further 24 h. On the procedure: (§1) Photosensitizers (e.g. purpurin analogue, chlorin e4 disodium (provided by Advanced Molecular Technologies, Scoresby) or Talaporfin sodium (purchased from Focus Bioscience cat #HY-16477-5MG)) were resuspended in 100% dimethylsulfoxide (DMSO) at a concentration of 5.5 mM. Samples were stored at 4 °C protected from light.
(§2) For in vitro experiments, photosensitizers (stock solution 5.5 mM in 100% DMSO) were diluted 1:100 in concentrated excipient solution (final 55 μM photosensitizer in 10% w/v Kollidon-12, 42.4% w/v polysorbate 80, 40% w/v ethanol, 1.0% DMSO). Serial dilutions were prepared in cell culture media (Dulbecco's Modified Eagle Medium/Nutrient Mixture F-12 (DMEM/F-12)) supplemented with 10% v/v Fetal Bovine Serum, 100 U/mL penicillin, 100 μg/mL streptomycin and the same excipient solution at a constant 1:55 dilution.
(§3) Human ovarian cancer cell line SKOV3 (ATCC #HTB-77) was maintained in Dulbecco's Modified Eagle Medium/Nutrient Mixture F-12 (DMEM/F-12), supplemented with […] Fetal Bovine Serum, 100 U/mL penicillin and 100 μg/mL streptomycin. Monolayer cultures were grown in a humidified incubator at 37 °C with 5% CO2. Once cells had reached ~80% confluence, spent media was replaced with media containing photosensitizer at the required concentration and cells were incubated for the desired period of time to allow photosensitizer uptake.
(§4) All data were analysed using GraphPad PRISM v8.3.1 (549) (GraphPad Software, CA). Spectral absorbance and viability measurements were normalized in the range 0-100%, with a minimum of 0 and a maximum value determined from the dataset. Dose response was determined using a sigmoidal four-point non-linear regression with variable slope, and IC10 or IC90 calculated for each compound. All data are shown as mean±SD (where appropriate).
(§5) SKOV3 cells were seeded in 96-well black wall plates (Greiner #655090) at a cell density of 5000 cells in 100 μl culture medium per well. On reaching ~60% confluence, media was aspirated and replaced with fresh media containing the relevant purpurin analogue from 0-100 μM in DMSO. Cells were incubated for a further 24 hours, allowing uptake of purpurin analogues.
To test for phototoxicity, cells incubated with purpurin analogues ([…] in DMSO) had culture media replaced after 24 hours (as above) and were then exposed to a 680 nm light-emitting diode (LED) panel (Invion) with optical power density at 50 mW/cm^2 for 5 mins (total 15 J/cm^2). Laser and LED exposure induce an equivalent response in relation to phototoxicity. Following activation, cells were cultured for a further 24 hours. Media was then replaced with fresh media containing AlamarBlue, and % viable cells remaining assessed as above. Controls included cells treated with purpurin analogues but not activated by laser light; cells without purpurin analogue treatment but with laser light; and untreated controls. All measurements were made in quadruplicate.
(§6) The phototoxicity and inherent cytotoxicity (i.e. “dark toxicity”) of purpurin analogues were assessed as previously using SKOV3 ovarian cancer cells. For comparative purposes, purpurin analogues were compared against chlorin e4 disodium and Talaporfin sodium, a clinically approved photosensitizer used in the photodynamic treatment of lung cancers. Phototoxicity IC90 values and dark toxicity IC10 values were calculated using a log[inhibitor]-vs normalized response dose curve with variable slope, using the formula Y=100/(1+(IC90/X)^HillSlope (phototoxicity IC90)) or Y=100/(1+(IC10/X)^HillSlope (dark toxicity IC10)).

Series [2] has as its system SKOV3 ovarian cancer cells. The series can be described thus: Inherent cytotoxicity (dark toxicity): % viable SKOV3 cells (AlamarBlue) without light. In kind it is cell-based, human. To be noted: 24 h incubation, no light. On the procedure: as §1, §2, §3, §4, §5
To test for inherent cytotoxicity (i.e. “dark toxicity”) of the purpurin analogues, the culture media was replaced after 24 hours with fresh media containing 10% (v/v) AlamarBlue Cell Viability Reagent (ThermoFisher) and cells incubated at 37 °C for 6 hours. Untreated cells were used as a control. Fluorescence (Ex 555 nm/Em 596 nm) was measured using a CLARIOstar Plus Microplate Readear (BMG Labtech), and cytotoxicity assessed according to the % viable cells remaining. All measurements were made in quadruplicate.
as §6

Series [3] relates to SKOV3 ovarian cancer cells. The series can be described thus: Therapeutic index (phototoxicity IC90 vs dark toxicity IC10). Format: cell-based, human. On the procedure:
as §6
To evaluate the therapeutic potential of purpurin analogues, the therapeutic index (TI) was calculated. TI provides a quantitative measurement to describe relative drug safety, by comparing the drug concentration required for desirable effects versus the concentration resulting in undesirable off-target toxicity. TI was calculated using phototoxicity IC90 vs dark toxicity IC10.

Series [4] concerns indomethacin-induced gastric lesions. To be noted: rats; cited from earlier work.
Series [5] relates to TAA- or CCl4-induced acute liver injuries. To be noted: mice; cited from earlier work.

Consider `C=Cc1c(C)c2cc3nc(c(C)c4[nH]c(cc5nc(cc1[nH]2)C(C)=C5CC)c(C)c4C(=O)O)[C@@H](CCC(=O)O)[C@@H]3C` [Chlorin e4 disodium, chlorin e4 disodium, reference compound], for which, in series [1], the IC90 was 21300 nM. In addition, the “Dark toxicity (IC10)” value in series [2] was found to be 40230 nM. In series [3], the “Therapeutic Index” value is reported as 1.89.

Regarding `C=Cc1c(C)c2cc3nc(c(C)c4nc(cc5[nH]c(cc1[nH]2)c(C)c5CC)C(C)=C4C(=O)O)[C@@H](CCC(=O)O)[C@@H]3C` [Chlorin e4], the “protective effect against indomethacin-induced gastric lesions” value in series [4] is listed as “protective effect against indomethacin-induced gastric lesions in rats”. Also, in series [5], the “protective effect against TAA- or CCl4-induced acute liver injuries” value was “protective effect”.

On to `CCCCCCN1C(=O)c2c3nc(cc4[nH]c(cc5nc(cc6[nH]c2c(c6C)C1=O)C(CC)=C5C)c(COC(=O)NCCC[P+](c1ccccc1)(c1ccccc1)c1ccccc1)c4C)[C@@H](C)[C@@H]3CCC(=O)OC` [Compound 1, purpurin 18 13-(N-(3-triphenylphosphoniumpropyl)bromide)carbamate N-hexylimide methyl ester], for which the IC90 in series [1] was 46 nM. In series [2], the “Dark toxicity (IC10)” value came to 79630 nM. In series [3], the “Therapeutic Index” value was 1731.09.

Regarding `CCCCCCN1C(=O)c2c3nc(cc4[nH]c(cc5nc(cc6[nH]c2c(c6C)C1=O)C(CC)=C5C)c(COC(=O)CCCC[P+](c1ccccc1)(c1ccccc1)c1ccccc1)c4C)[C@@H](C)[C@@H]3CCC(=O)OC` [Compound 2, purpurin 18 N-hexylimide 13-(oxopentyl)triphenylphosphonium bromide], the IC90 in series [1] amounted to 27 nM. In series [2], the “Dark toxicity (IC10)” value came to 77630 nM. Also, in series [3], the “Therapeutic Index” value amounted to 2875.19.

With `CCC1=C(C)c2cc3[nH]c(cc4nc(c5c6[nH]c(cc1n2)c(C)c6C(=O)N(CCOCCOC)C5=O)[C@@H](CCC(=O)OC)[C@@H]4C)c(C)c3COC(=O)NCCC[P+](c1ccccc1)(c1ccccc1)c1ccccc1` [Compound 3, purpurin 18 13-(N-(3-triphenylphosphoniumpropyl)bromide)carbamate N-(2-(2-methoxyethoxy)ethyl)imide methyl ester], the IC90 in series [1] is 102 nM. In addition, the “Dark toxicity (IC10)” value in series [2] was 50840 nM. Also, the “Therapeutic Index” value in series [3] came to 498.43.

In the case of `C=Cc1c(C)c2cc3nc(c4c5[nH]c(cc6nc(cc1[nH]2)C(C)=C6CC)c(C)c5C(=O)N(CCC[P+](c1ccccc1)(c1ccccc1)c1ccccc1)C4=O)[C@@H](CCC(=O)N(C)CCOCCOC)[C@@H]3C` [Compound 4, purpurin 18 N-(3-triphenylphosphoniumpropylbromide)imide N-(2-(2-methoxyethoxy)ethyl)-N-methyl-amide], the 90% effect concentration (IC90) in series [1] was 10 nM. Also, in series [2], the “Dark toxicity (IC10)” value came out at 49910 nM. Besides, in series [3], the “Therapeutic Index” value is 4991.00.

As to `C=Cc1c(C)c2cc3nc(c4c5[nH]c(cc6nc(cc1[nH]2)C(C)=C6CC)c(C)c5C(=O)OC4=O)[C@@H](CCC(=O)NCCC[P+](c1ccccc1)(c1ccccc1)c1ccccc1)[C@@H]3C` [Compound 5, purpurin 18 (N-(3-triphenylphosphoniumpropyl)bromide)amide], the concentration for an effect of 90% (IC90) in series [1] was found to be 5 nM. The “Dark toxicity (IC10)” value in series [2] worked out at 49880 nM. Further, the “Therapeutic Index” value in series [3] is 9976.00.

In the case of `C=Cc1c(C)c2cc3nc(c4c5[nH]c(cc6nc(cc1[nH]2)C(C)=C6CC)c(C)c5C(=O)N(CCOCCOC)C4=O)[C@@H](CCC(=O)NCCC[P+](c1ccccc1)(c1ccccc1)c1ccccc1)[C@@H]3C` [Compound 6, purpurin 18 (N-(3-triphenylphosphoniumpropyl)bromide)amide N-(2-(2-methoxyethoxy)ethyl)imide], the 90% effect concentration (IC90) in series [1] amounted to 9 nM. The “Dark toxicity (IC10)” value in series [2] stood at 51070 nM. In series [3], the “Therapeutic Index” value amounted to 5674.44.

For `CCCCCCN1C(=O)c2c3nc(cc4[nH]c(cc5nc(cc6[nH]c2c(c6C)C1=O)C(CC)=C5C)c(CN(C)C(=O)CCCC[P+](c1ccccc1)(c1ccccc1)c1ccccc1)c4C)[C@@H](C)[C@@H]3CCC(=O)OC` [Compound 7, purpurin 18 N-hexylimide 13-(N-methyl-5-triphenylphosphonium bromidepentanamide) methyl ester], the IC90 in series [1] was 21 nM. Also, the “Dark toxicity (IC10)” value in series [2] worked out at 49400 nM. Further, the “Therapeutic Index” value in series [3] turned out to be 2352.38.

For the compound `C=Cc1c(C)c2cc3nc(c(CC(=O)N[C@@H](CC(=O)O)C(=O)O)c4[nH]c(cc5nc(cc1[nH]2)C(C)=C5CC)c(C)c4C(=O)O)[C@@H](CCC(=O)O)[C@@H]3C` [Talaporfin sodium, reference compound], the “Dark toxicity (IC10)” value in series [2] is 11100 nM. For the same compound, the “Therapeutic Index” value in series [3] turned out to be 0.49.

Usually IC90 stands for the concentration needed for an effect of 90%.
